The results in this text go back to article PMC12467382, “Synthesis and Bioevaluation of Chalcones as Broad-Spectrum Antiviral Compounds Against Single-Stranded RNA Viruses” (Biomolecules, 2025).

The structures appear in SMILES notation.

In one data set the test system is mTOR signaling. In words: Western blot of prps6 and rps6 as readouts of mTOR signaling in PANC-1 cells. Type of data set: cell-based. Particulars: 72 h, chalcones 10 µM, rapamycin 10 nM. As to the method:
PANC-1 cells were cultured in 6-well dishes and were lysed using modified radioimmunoprecipitation assay (RIPA) buffer (20 mM HEPES, pH 7.0, 150 mM NaCl, 1 mM EDTA, 1% NP-40, 1% deoxycholate, and 0.1% sodium dodecyl sulfate [SDS]) containing a complete protease inhibitor cocktail (Roche, Mannheim, Germany) and PhosSTOP phosphatase inhibitor cocktail (Roche, Mannheim, Germany). Protein concentrations were determined using the bicinchoninic acid (BCA) protein assay kit (Pierce, Rockford, IL, USA) according to manufacturer’s instructions. Cell lysates with 25 µg of protein were resolved on 12% sodium dodecyl sulfate-polyacrylamide gel electrophoresis (SDS-PAGE) gels and electro-transferred onto polyvinylidene difluoride (PVDF) membranes (Trans-Blot Turbo Transfer System, BioRad, Hercules, CA, USA). The samples were probed with rabbit monoclonal antibodies for the P-rps6 (1:1000) protein (Cell Signaling, Danvers, MA, USA) and mouse monoclonal antibodies for rps6 (1:1000) (Cell Signaling) and β-actin (1:5000) (Abcam, Waltham, MA, USA) proteins. Blots were visualized using anti-rabbit or anti-mouse horseradish peroxidase (HRP)-conjugated antibodies (Cell Signaling) and chemiluminescence reagent (Thermo Fisher Scientific, Waltham, MA, USA).
PANC-1 cells were chosen for this study as they are highly dependent on mTOR for their growth. PANC-1 cells were cultured and treated with the positive control rapamycin (10 nM) and chalcones NM5, 8a, 8o, 8s, 8v, and 8w (10 μM) for 72 h. Rapamycin and the chalcones were dissolved in 100% DMSO and dosed so that the final DMSO concentration was 0.1%. Cell lysates were collected and analyzed to determine the relative protein expression levels of rps6, prps6, and β-actin as a loading control (see Figure 12).
For orientation: A western blot detects proteins with antibodies after separation by electrophoresis.

The test system of another data set is Vero cells. In words: Propidium iodide (PI) staining cytotoxicity in Vero cells by flow cytometry. Particulars: 24 h, concentration giving 10% PI+ cells. The class given is cell-based. As to the method: We also extended the analysis of chalcone anti-viral effects to the widely used Vero cell line. […] The quotients of these values were determined to compare the compounds directly while accounting for both cytotoxicity and efficacy against PIV5.

A further data set relates to ZIKV. Nature of the data set: ZIKV envelope (E) protein expression in Hs27 cells by flow cytometry. The class given is cell-based, Zika Virus. Particulars: MOI 5, 24 hpi; for Cells expressing ZIKV envelope (E) protein: 10 µM before and after infection, DMSO 15%. As to the method:
The MR766 strain of Zika Virus (ZIKV) (ATCC-VR84, Manassas, VA, USA) was grown and titered at 37 °C using Vero cells as previously described. Infections were carried out in DMEM containing 10% BSA for 1 h. Cells were then washed with PBS and cultured in DMEM containing 10% HI FBS.
(§1) For cytotoxicity assays, cells were stained with propidium iodide (PI) at a dilution of 1:100. Cell viability was determined via flow cytometry using the CytoFLEX (Beckman Coulter, Brea, CA, USA). CytExpert software (Beckman Coulter, version 2.4) was used to analyze independent events. PIV5 infection was monitored using flow cytometry via the FITC channel by analyzing GFP expression of individual cells. ZIKV infection was monitored utilizing Flavivirus group antigen–antibody (D1-4G2-4-15; Novus Biologicals, Littleton, CO, USA) staining for the ZIKV envelope protein. Cells were fixed and permeabilized using eBioscience Intracellular Fixation and Permeabilization Buffer (Invitrogen, Thermo Fisher Scientific, MA, USA) according to the manufacturer’s instructions. Secondary staining was performed using an anti-Alexa Fluor 488 (AF488) antibody (Invitrogen, Thermo Fisher Scientific, MA, USA). OC43 infection was monitored utilizing a primary antibody targeted toward the OC43 nucleocapsid protein (NP, MAB9013, Sigma-Aldrich, St. Louis, MO, USA). Secondary staining was performed using an AF488 antibody. Cells were fixed and permeabilized as previously described. LACV infection was monitored utilizing an anti-LACV Gc 807.31ab antibody kindly provided by Andrew Pekosv. Secondary staining was performed using an AF488 antibody. Cells were fixed and permeabilized as previously described.
To expand these findings, we evaluated whether these top-performing chalcones inhibited the replication of other RNA viruses. Briefly described, Hs27 cells were left untreated, treated with DMSO as a control, or treated with the chalcones 8a, 8o, or 8p at 10 μM for 24 h. Cells were then infected with the Bunyavirus LACV, the Flavivirus ZIKV, or the Coronavirus OC43 at high MOIs, as listed in Figure 10. […]
In general terms: Flow cytometry measures light scatter and fluorescence of single cells or particles in a stream.

In another data set the test system is OC43. Nature of the data set: Coronavirus OC43 NP protein expression in Hs27 cells by flow cytometry. The class given is cell-based, Human Coronavirus OC43. The following applies: MOI 50, 24 hpi; for Cells expressing OC43 NP protein: 10 µM before and after infection, DMSO ~65%. As to the method:
Human Coronavirus OC43 (ATCC, catalog number VR-1558) was grown in a human colorectal adenocarcinoma cell line (HCT-8; ATCC, Manassas, Virginia, catalog #CCL-244) at 33 °C as previously described. OC43 titers were determined at 33 °C via 50% Tissue Culture Infectious Dose assays (TCID50) on confluent human rhabdomyosarcoma (RD; ATCC, Manassas, Virginia, catalog # CCL-136) cells in 96-well plates as previously described. Infections were carried out in DMEM containing 10% BSA for 1 h at 33 °C. Cells were then washed with PBS, cultured in DMEM supplemented with 2% HI FBS, and incubated at 33 °C.
For cytotoxicity assays, cells were stained with propidium iodide (PI) at a dilution of 1:100. Cell viability was determined via flow cytometry using the CytoFLEX (Beckman Coulter, Brea, CA, USA). CytExpert software (Beckman Coulter, version 2.4) was used to analyze independent events. PIV5 infection was monitored using flow cytometry via the FITC channel by analyzing GFP expression of individual cells. ZIKV infection was monitored utilizing Flavivirus group antigen–antibody (D1-4G2-4-15; Novus Biologicals, Littleton, CO, USA) staining for the ZIKV envelope protein. Cells were fixed and permeabilized using eBioscience Intracellular Fixation and Permeabilization Buffer (Invitrogen, Thermo Fisher Scientific, MA, USA) according to the manufacturer’s instructions. Secondary staining was performed using an anti-Alexa Fluor 488 (AF488) antibody (Invitrogen, Thermo Fisher Scientific, MA, USA). OC43 infection was monitored utilizing a primary antibody targeted toward the OC43 nucleocapsid protein (NP, MAB9013, Sigma-Aldrich, St. Louis, MO, USA). Secondary staining was performed using an AF488 antibody. Cells were fixed and permeabilized as previously described. LACV infection was monitored utilizing an anti-LACV Gc 807.31ab antibody kindly provided by Andrew Pekosv. Secondary staining was performed using an AF488 antibody. […]
(§2) To expand these findings, we evaluated whether these top-performing chalcones inhibited the replication of other RNA viruses. […]

A further data set has as its system LACV. Nature of the data set: LACV Gc protein expression in Hs27 cells by flow cytometry. The class given is cell-based, La Crosse Virus. Particulars: MOI 10, 24 hpi; for Cells expressing LACV glycoprotein Gc: 10 µM before and after infection, DMSO ~60%. As for the experimental part: La Crosse Virus (LACV) was kindly provided by Andrew Pekosz (Johns Hopkins Bloomberg School of Public Health, Baltimore, MD, USA), grown at 28 °C in C6/36 cells derived from the larvae of the Asian tiger mosquito (ATCC), and titered at 37 °C on Vero cells as previously described. Infections were carried out in DMEM containing 2% HI FBS for 1 h or mock infected with media alone. Cells were washed with PBS and cultured in DMEM containing 2% HI FBS.
as §1, §2

`CCOc1ccc(Br)cc1/C=C/C(=O)c1c(O)cccc1OCc1ccc(-c2ccccc2)cc1` [Chalcone 8v, (2E)-1-[2-(Biphenyl-4-Ylmethoxy)-6-Hydroxy-Phenyl]3-(5-Bromo-2-Ethoxy-Phenyl)-Propenone]: in the data set with mTOR signaling, the “prps6 expression relative to DMSO control” value was “no significant change” and the “total rps6 protein expression relative to DMSO control” value is on record as “no significant difference”.
Regarding `COc1ccc(Br)cc1/C=C/C(=O)c1c(O)cccc1OCc1ccc(-c2ccccc2)cc1` [Chalcone 8w, (2E)-1-[2-(Biphenyl-4-Ylmethoxy)-6-Hydroxy-Phenyl]3-(5-Bromo-2-Methoxy-Phenyl)-Propenone], in the data set with mTOR signaling, the “prps6 expression relative to DMSO control” value is “no significant change” and the “total rps6 protein expression relative to DMSO control” value is “no significant difference”.
As to `COc1ccc(Br)cc1/C=C/C(=O)c1c(O)cccc1OC` [Chalcone 8f], the “PI MTC” value in the data set on Vero cells is 6.8 µM.
Regarding `COc1ccccc1/C=C/C(=O)c1ccccc1O` [Chalcone 8a], the “Inhibition of viral gene expression, ZIKV” value in the data set on ZIKV (10 µM) was “did not inhibit viral gene expression”. Further, the “Effect on OC43 NP expression” value in the data set with OC43 (10 µM) was “significant inhibitory effects”. Further, in the data set with mTOR signaling, the “prps6 expression relative to DMSO control” value is reported as “no significant change” and the “total rps6 protein expression relative to DMSO control” value is “no significant difference”. Also, the “Inhibition of viral gene expression, LACV” value with LACV (10 µM) is “did not inhibit viral gene expression”.
As for `COc1ccc(Br)cc1/C=C/C(=O)c1c(O)cccc1OCc1ccccc1` [Chalcone 8l], the “PI MTC” value with Vero cells is listed as 4.0 µM.
Turning to `CCOc1ccc(Br)cc1/C=C/C(=O)c1c(O)cccc1OCc1ccccc1` [Chalcone 8o], in the data set on ZIKV, the “Cells expressing ZIKV envelope (E) protein” value was ~ 2%. The “PI MTC” value with Vero cells worked out at 2.5 µM. In addition, the “Cells expressing OC43 NP protein” value with OC43 is 1-2%. Further, in the data set on mTOR signaling, the “prps6 expression relative to DMSO control” value is listed as “no significant change” and the “total rps6 protein expression relative to DMSO control” value is listed as “no significant difference”. Moreover, the “Cells expressing LACV glycoprotein Gc” value in the data set on LACV is reported as “below 10%”.
`COc1ccc(Br)cc1/C=C/C(=O)c1c(O)cccc1OCCC(C)C` [Chalcone 8s, (2E)-3-(5-Bromo-2-Methoxy-Phenyl)-1-[2-Hydroxy-6-(3-Methyl-Butoxy)-Phenyl]-Propenone]: in the data set with mTOR signaling, the “prps6 expression relative to DMSO control” value is reported as “no significant change” and the “total rps6 protein expression relative to DMSO control” value is recorded as “significantly increased”.
For the compound `CCOc1ccc(Cl)cc1/C=C/C(=O)c1c(O)cccc1OCc1ccccc1` [Chalcone 8p], the “Cells expressing ZIKV envelope (E) protein” value with ZIKV is ~ 2%. The “PI MTC” value in the data set on Vero cells was 3.2 µM. For the same compound, the “Cells expressing OC43 NP protein” value with OC43 was 1-2%. Also, the “Cells expressing LACV glycoprotein Gc” value in the data set on LACV is “below 10%”.
